Results from patent publication US10960010B2, “Pharmaceutical compositions for sustained or delayed release” (INTRA-CELLULAR THERAPIES, INC., priority 2013, dated 2021).
“Also recorded” adds a separate entry of the source.

Test system: patients with schizophrenia
Experiment: Randomized, double-blind, placebo-controlled in-patient trial, 4-week treatment, PANSS
Type: in vivo, human
Experimental: For purposes of this example, Compound A refers to the compound of Formula I wherein X is —N(CH3)— and Y is —C(O)—; tosylate salt unless otherwise indicated. A randomized, double-blind, placebo-controlled, in-patient trial is performed. Four treatment arms, 4-week treatment duration, QAM dosing are performed as follows: 60 mg of Compound A; 120 mg of Compound A; positive control (4 mg Risperidone); and placebo. The primary outcome is measured by the change from baseline on Positive and Negative Syndrome Scale (PANSS) Total Score at Day 28. Secondary measures explore key differentiating features.
60 mg Compound A Treatment Arm receives 60 mg of Compound A once daily for 28 days. 120 mg Compound A Treatment Arm receives 60 mg Compound A on Study Day 1 followed by 120 mg Compound A once daily for 27 days. Risperidone Treatment Arm receives 2 mg risperidone on Study Day 1 followed by 4 mg risperidone once daily for 27 days. Placebo Treatment Arm receives placebo once daily for 28 days. All doses are administered in the morning with breakfast.
Key inclusion criteria: Clinical diagnosis of schizophrenia according to DSM-IV-TR is confirmed by modified SCID-CT. Screening Brief Psychiatric […] Scale (BPRS) score of 40 or greater (18-items scored 1-7 each). Minimum score of 4 or higher on at least two of the following positive items: suspiciousness, conceptual disorganization, hallucinatory behavior, unusual thought content. Current exacerbated episode lasts no longer than 4 weeks. Sufficient history and/or independent reporter must verify that current state is an exacerbated state for the individual. Prior response to antipsychotic therapy within the last 5 years, defined as clinically significant and documented decrease in delusions and/or hallucinations during a documented exacerbated episode (and at least 3 months prior exposure to antipsychotic therapy).
The trial has a high subject completion rate (74%) compared to an average of 62% completion rate in other 4-week antipsychotic trials. 19% discontinues during the study treatment period (during Day 1-28). 7% completes study treatment through Day 28, but are lost to follow up.

[1] = 60 mg, sub-group of patients with depression at baseline

SMILES	Prosocial PANSS Factor change from baseline compared to placebo (60 mg)	general psychopathology subscale of the PANSS (60 mg)	items on the negative symptom and general psychopathology subscales consistent with improved social function (60 mg)	positive symptom subscale of the PANSS (60 mg)	Effect Size (Total PANSS) (60 mg Compound A)	LS Mean Difference from Placebo (Total PANSS, Day 28) (60 mg Compound A)	LS Mean Change from Baseline on Day 28 Total PANSS (±SE) using MMRM/ITT (60 mg Compound A (tosylate) once daily in the morning, 28 days, N = 76)	PANSS total score, result in words (60 mg once daily in the morning, after 28 days of treatment)	hyperprolactinemia, EPS/akathisia, weight gain, cardiovascular safety (60 mg once daily, 28 days)	negative symptoms (PANSS Negative Symptom Sub-Scale) [1]	total PANSS [1]	negative symptoms (PANSS Negative Symptom Sub-Scale) (60 mg, subgroup of patients with prominent negative symptoms at baseline)	depression as measured by the CDSS (60 mg, subgroup with CDSS score >6 at baseline)	Effect Size (Total PANSS) (120 mg Compound A)	LS Mean Difference from Placebo (Total PANSS, Day 28) (120 mg Compound A)	LS Mean Change from Baseline on Day 28 Total PANSS (±SE) using MMRM/ITT (120 mg Compound A (60 mg on Day 1, then 120 mg once daily 27 days), N = 80)	Effect Size (Total PANSS) (4 mg Risperidone)	LS Mean Difference from Placebo (Total PANSS, Day 28) (4 mg Risperidone)	LS Mean Change from Baseline on Day 28 Total PANSS (±SE) using MMRM/ITT (4 mg Risperidone (2 mg on Day 1, then 4 mg once daily 27 days), N = 75)	total PANSS and negative symptoms compared with the Compound of Formula I (risperidone arm, sub-group of patients with depression at baseline)
CN1CCN2c3c(cccc31)[C@@H]1CN(CCCC(=O)c3ccc(F)cc3)CC[C@@H]12 [Compound A]	significantly improve	statistically significantly improves	improves certain items	statistically significantly improves	0.4	−5.8	−13.2 ± 1.7	demonstrates antipsychotic efficacy; also recorded: statistically significant and clinically meaningful decrease	does not cause hyperprolactinemia, EPS/akathisia, weight gain or cardiovascular safety issues	robustly improves	robustly improves	improves negative symptoms qualitatively	significantly reduces depression	0.1	−0.9	−8.3 ± 1.7				
Cc1nc2n(c(=O)c1CCN1CCC(c3noc4cc(F)ccc34)CC1)CCCC2 [Risperidone, reference compound]																	0.4	−6.0	−13.4 ± 1.7	less effective
